Patent US20230082929A1, “METHODS OF GENERATING AND USING SENESCENT-INDUCED CELLS FOR TREATMENT OF CANCER AND COMPOSITIONS RELATING THERETO” (The Wistar Institute of Anatomy and Biology, priority 2020, published 2023)
Blank lines part the entries; values can stand above or below the compound they belong to.

Assays:
SASP factors [1] = assay: SASP factor expression (qRT-PCR) and secretion (antibody array) in UPK10 cells; type: cell-based, mouse
Procedure: UPK10 and ID8 cells were treated with […], or a combination for three days. The drugs were then released from drug treatment and cultured for three days or extended period as indicated. The senescent cells were labelled with SPiDER-0 Gal Cellular Senescence Detection Kit (Dojindo, Cat. No: SG02-10) following the manufacture's instruction. Both senescent and non-senescent cells were sorted using flow cytometry. Mouse Cytokine Array C1 kit (RayBiotech. Cat. No: AAM-CYT-1-2) was used for cytokine analysis following the manufacturer's guidelines. Briefly, cells were washed once and cultured in serum-free medium for 48 hrs. Conditioned medium was filtered (0.2 μm) and then subjected to cytokine-array analysis. After collection of conditional media, the cell number of each sample was counted. The intensities of array dots were visualized on film after incubation with SuperSignal West Pico PLUS Chemiluminescent Substrate (Thermo Fisher Scientific. Cat. No: 34580). The integrated density was measured using Image J and normalized to the cell number from which the conditioned medium was generated. Total RNA was isolated using Trizol (Invitrogen) according to the manufacturer's instruction. Extracted RNAs were used for reverse-transcriptase PCR (RT-PCR) with High-Capacity cDNA Reverse Transcription Kit (Thermo fisher, Cat. No: 4368814). Quantitative PCR (qPCR) was performed using iTaq™ Universal SYBR® Green Supermix (BIO-RAD, Cat. No: 1725121) and QuantStudio 3 Real-Time PCR System.

ID8-Defb29/Vegf-a cells = assay: Cisplatin-induced senescence, SA-β-gal staining of ID8-Defb29/Vegf-a cells; type: cell-based, mouse; settings: 2 μM Cisplatin for 48 hours
Procedure: For oncogene-induced senescence, IMR90 cells were infected with retrovirus produced by pBABE-puro-H-RAS^G12V (Addgene) at 37° C. for 24 hr. A second round of infection was performed on the same target cells. Infected cells were drug-selected using 3 μg/ml puromycin (Nacarelli et al., 2019). For Etoposide-induced senescence, IMR90 or OVCAR3 cells at approximately 60-70% confluency were treated with 50 μM or 2 μM Etoposide for 48 hours. The treated cells were cultured in fresh medium and harvested at day 8. For Cisplatin-induced senescence, OVCAR3 or ID8-Defb29/Vegf-a cells at approximately 60-70% confluency were treated with 2 μM Cisplatin for 48 hours. The treated cells were cultured in fresh medium and harvested at day 8.
(§1) SA-β-Gal staining was performed as previously described (Nacarelli et al., 2019). Briefly, cells were fixed for 5 mins at room temperature in 2% formaldehyde/0.2 glutaraldehyde in PBS. After washing twice with PBS, cells were stained at 37° C. overnight in a non-CO2 incubator in staining solution (40 mM Na2HPO4, pH 6.0, 150 mM NaCl, 2 mM MgCl2, 5 mM K3Fe(CN)6, 5 mM K4Fe(CN)6, and 1 mg/ml X-gal. After counterstaining with Nuclear Fast Red solution (Ricca, Cat. No: R5463200500), slides were subjected to an alcohol dehydration series and mounted with Permount (FisherScientific. Cat. No: SP15-100). Slides were examined using a Zeiss AxioImager A2.

UPK10 cells = assay: Senescence induction in UPK10 cells (SA-β-Gal, SPiDER SA-β-Gal, immunoblot); type: cell-based, mouse
Procedure: as §1
(§2) UPK10 and ID8 cells were treated with […], or a combination for three days. The drugs were then released from drug treatment and cultured for three days or extended period as indicated. The senescent cells were labelled with SPiDER-0 Gal Cellular Senescence Detection Kit (Dojindo, Cat. No: SG02-10) following the manufacture's instruction. Both senescent and non-senescent cells were sorted using flow cytometry.
(§3) Cells were lysed in 1× sample buffer (2% SDS, 10% glycerol, 0.01% bromophenol blue, 62.5 mM Tris, pH 6.8, and 0.1 M DTT) and heated to 95° C. for 10 min. Protein concentrations were determined using the protein assay dye (Bio-Rad. Cat. No: #5000006) and Nanodrop. An equal amount of total protein was resolved using SDS-PAGE gels and transferred to PVDF membranes at 110 V for 2 hours at 4° C. Membranes were blocked with 5% nonfat milk in TBS containing 0.1% Tween 20 (TBS-T) for 1 hour at room temperature. Membranes were incubated overnight at 4° C. in the primary antibodies in 4% BSA/TBS+0.025% sodium azide. Membranes were washed four times in TBS-T for 5 min at room temperature, after which they were incubated with HRP-conjugated secondary antibodies (Cell Signaling Technology. Cat. No: 7076S, 7074S) for 1 hour at room temperature. After washing four times in TBS-T for 5 min at room temperature, proteins were visualized on film after incubation with SuperSignal West Pico PLUS Chemiluminescent Substrate (Thermo Fisher Scientific. Cat. No: 34580).

SASP factors [2] = assay: SASP factor expression by qRT-PCR in ID8 cells; type: cell-based, mouse
Procedure: UPK10 and ID8 cells were treated with […], or a combination for three days. The drugs were then released from drug treatment and cultured for three days or extended period as indicated. The senescent cells were labelled with SPiDER-0 Gal Cellular Senescence Detection Kit (Dojindo, Cat. No: SG02-10) following the manufacture's instruction. Both senescent and non-senescent cells were sorted using flow cytometry. Total RNA was isolated using Trizol (Invitrogen) according to the manufacturer's instruction. Extracted RNAs were used for reverse-transcriptase PCR (RT-PCR) with High-Capacity cDNA Reverse Transcription Kit (Thermo fisher, Cat. No: 4368814). Quantitative PCR (qPCR) was performed using iTaq™ Universal SYBR® Green Supermix (BIO-RAD, Cat. No: 1725121) and QuantStudio 3 Real-Time PCR System.

TOP1cc = target: T1, TOP1cc (Mus musculus, UniProt Q04750); assay: Immunoblot of TOP1cc and SASP regulators in sorted UPK10 cells; type: cell-based
T1 construct: endogenous in cells; host or cells: UPK10 mouse ovarian cancer cells, sorted senescent and non-senescent fractions
T1 sequence (Q04750 1-767): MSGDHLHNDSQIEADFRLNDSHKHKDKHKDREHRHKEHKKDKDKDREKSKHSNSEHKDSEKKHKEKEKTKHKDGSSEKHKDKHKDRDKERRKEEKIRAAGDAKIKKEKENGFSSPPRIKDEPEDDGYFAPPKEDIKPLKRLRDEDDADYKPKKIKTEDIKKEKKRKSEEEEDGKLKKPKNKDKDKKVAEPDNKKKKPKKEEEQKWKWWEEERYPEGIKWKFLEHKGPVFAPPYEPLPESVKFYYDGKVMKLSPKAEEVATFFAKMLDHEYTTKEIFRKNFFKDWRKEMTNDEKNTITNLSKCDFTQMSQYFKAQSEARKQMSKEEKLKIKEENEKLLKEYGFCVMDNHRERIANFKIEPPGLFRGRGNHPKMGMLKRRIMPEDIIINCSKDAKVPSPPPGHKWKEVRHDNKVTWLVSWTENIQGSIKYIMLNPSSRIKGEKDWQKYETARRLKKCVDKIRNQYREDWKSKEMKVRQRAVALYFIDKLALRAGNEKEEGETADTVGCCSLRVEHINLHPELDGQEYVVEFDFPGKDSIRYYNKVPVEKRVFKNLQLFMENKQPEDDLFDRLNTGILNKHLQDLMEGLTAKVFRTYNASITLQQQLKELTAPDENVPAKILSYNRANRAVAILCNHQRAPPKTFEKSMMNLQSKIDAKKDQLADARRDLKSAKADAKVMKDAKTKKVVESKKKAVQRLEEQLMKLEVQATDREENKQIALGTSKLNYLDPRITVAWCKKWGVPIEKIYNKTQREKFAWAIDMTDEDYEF
Procedure: as §2, §3
• anti-Topoisomerase I-DNA Covalent Complexes (TOP1cc) (clone 1.1A) (Millipore. Cat. No: MABE1084), 1:1000 for slot blot • anti-TOP1 (Proteintech. Cat. No: 20705-1-AP), 1:1000 for immunoblotting • anti-cGAS (D9) (Santa Cruz. Cat. No: sc-515777), 1:1000 for immunoblotting; • anti-Cyclin A (H432) (Santa Cruz. Cat. No: sc-751), 1:1000 for immunoblotting; • anti-βactin (Sigma. Cat. No: A2228), 1:10000 for immunoblotting.

[3] = cisplatin three days, three days of release

Structure (SMILES): Cc1ccc2c(=O)c3cccc(CC(=O)O)c3oc2c1C [DMXAA]
SASP factor levels compared with senescent cells sorted from cisplatin and irinotecan combination treatment (SASP factors [1]; UPK10 cells): significantly lower levels | expression and secretion of SASP factors (SASP factors [1]; UPK10 cells, DMXAA as control): sufficient to increase the expression and secretion of SASP factors

Structure (SMILES): N.N.[Cl][Pt][Cl] [cisplatin, Cisplatin]
concentration chosen on optimal induction of SASP factors IL1β, IL8, CXCL10 in a dose-titration study (SASP factors [1]; UPK10 cells): 10 µM | treated cells in which senescence was induced (ID8-Defb29/Vegf-a cells): ~100% | cell proliferation marker cyclin A (UPK10 cells; [3]): decrease in cell proliferation marker cyclin A | markers of senescence (SA-β-Gal activity, p16, γH2AX) (UPK10 cells; [3]): induction of markers of senescence including senescence-associated β-galactosidase (SA-β-Gal) activity, p16 and γH2AX

TOP1cc levels in sorted senescent cells (TOP1cc; compared with cisplatin-induced senescent cells, UPK10): increased by irinotecan addition | TOP1cc levels in sorted non-senescent cells (TOP1cc; compared with vehicle control treated non-senescent cells, UPK10): notably higher
Structure (SMILES): CCc1c2c(nc3ccc(OC(=O)N4CCC(N5CCCCC5)CC4)cc13)-c1cc3c(c(=O)n1C2)COC(=O)[C@]3(O)CC [irinotecan]
SASP expression in cisplatin-induced senescent ID8 cells (SASP factors [2]): boosts SASP expression | expression of SASP factors at the mRNA levels (qRT-PCR) (SASP factors [1]; sorted senescent UPK10 cells induced by cisplatin): significantly increased the expression of SASP factors | percentage of senescent cells induced by cisplatin with or without irinotecan (SPiDER SA-β-Gal) (UPK10 cells): comparable | SA-β-Gal activity (SPiDER) (UPK10 cells; irinotecan alone): also induced SA-β-Gal activity | SASP regulators phospho-p65 NF-κB and phosphor-p38 MAPK (TOP1cc; sorted senescent UPK10 cells): increase in SASP regulators such as phospho-p65 NF-κB and phosphor-p38 MAPK
